Test results from patent US12433865B2, “Compositions comprising PGI2-receptor agonists and processes for the preparation thereof” (Arena Pharmaceuticals, Inc., priority 2018, dated 2025).

Assay: Release (dissolution) profile of capsules, USP Apparatus 2 (paddle)
Format: physicochemical
Source text: USP Apparatus 2 (Paddle Apparatus) is described, for example, in the United States Pharmacopeial Convention, Feb. 1, 2012, Chapter <711> (“Dissolution”), incorporated by reference herein in its entirety. See http://www.usp.org/sites/default/files/usp_pdf/EN/USPNF/revisions/m99470-gc_711.pdf. The assembly from Apparatus 1 is used, except that a paddle formed from a blade and a shaft is used as the stirring element. The shaft is positioned so that its axis is not more than 2 mm from the vertical axis of the vessel at any point and rotates smoothly without significant wobble that could affect the results. The vertical center line of the blade passes through the axis of the shaft so that the bottom of the blade is flush with the bottom of the shaft. A distance of 25±2 mm between the bottom of the blade and the inside bottom of the vessel is maintained during the test. The metallic or suitably inert, rigid blade and shaft comprise a single entity. A suitable two-part detachable design may be used provided the assembly remains firmly engaged during the test. The paddle blade and shaft may be coated with a suitable coating so as to make them inert. The dosage unit is allowed to sink to the bottom of the vessel before rotation of the blade is started. A small, loose piece of nonreactive material, such as not more than a few turns of wire helix, may be attached to dosage units that would otherwise float. Other validated sinker devices may be used.
Unless otherwise specified, the release profiles for capsules were measured using USP Apparatus 2 (paddle).
All release profiles disclosed in Tables 3c-3p were measured with USP Apparatus 2 (paddle) at 50 rpm in 500 mL of aqueous sodium phosphate at a concentration of 0.05 M (pH=6.8). The values in a given table relate to capsules obtained from the same batch. Values shown represent mean values over a number of dissolution tests (“n” in each table) in each case.

O=C(O)COC[C@H]1CC[C@H](COC(=O)N(c2ccccc2)c2ccc(Cl)cc2)CC1 [Compound 1, 2-(((1r,4r)-4-(((4-chlorophenyl)(phenyl)carbamoyloxy)methyl)cyclohexyl)methoxy)acetic acid]
mean value (n = 6) of % of Compound 1 released (Table 3k: size 4 capsule, 0.03 mg Compound 1, Poloxamer 188:food grade GMS 50:50, 360 min): 91.4%
mean value (n = 6) of % of Compound 1 released (Table 3k: size 4 capsule, 0.03 mg Compound 1, Poloxamer 188:food grade GMS 50:50, 480 min): 98.3%
mean value (n = 4) of % of Compound 1 released (Table 3l: size 4 capsule, 0.5 mg Compound 1, Poloxamer 188:food grade GMS 50:50, 30 min): 9.9%
mean value (n = 4) of % of Compound 1 released (Table 3l: size 4 capsule, 0.5 mg Compound 1, Poloxamer 188:food grade GMS 50:50, 60 min): 22.2%
mean value (n = 4) of % of Compound 1 released (Table 3l: size 4 capsule, 0.5 mg Compound 1, Poloxamer 188:food grade GMS 50:50, 120 min): 42.9%
mean value (n = 4) of % of Compound 1 released (Table 3l: size 4 capsule, 0.5 mg Compound 1, Poloxamer 188:food grade GMS 50:50, 180 min): 61.5%
mean value (n = 4) of % of Compound 1 released (Table 3l: size 4 capsule, 0.5 mg Compound 1, Poloxamer 188:food grade GMS 50:50, 240 min): 76.9%
mean value (n = 4) of % of Compound 1 released (Table 3l: size 4 capsule, 0.5 mg Compound 1, Poloxamer 188:food grade GMS 50:50, 360 min): 92.2%
mean value (n = 4) of % of Compound 1 released (Table 3l: size 4 capsule, 0.5 mg Compound 1, Poloxamer 188:food grade GMS 50:50, 480 min): 96.7%
mean value (n = 6) of % of Compound 1 released (Table 3m: size 4 capsule, 0.03 mg Compound 1, Poloxamer 188:food grade GMS 30:70, 60 min): 15.3%
mean value (n = 6) of % of Compound 1 released (Table 3m: size 4 capsule, 0.03 mg Compound 1, Poloxamer 188:food grade GMS 30:70, 120 min): 27.4%
mean value (n = 6) of % of Compound 1 released (Table 3m: size 4 capsule, 0.03 mg Compound 1, Poloxamer 188:food grade GMS 30:70, 180 min): 38.4%
mean value (n = 6) of % of Compound 1 released (Table 3m: size 4 capsule, 0.03 mg Compound 1, Poloxamer 188:food grade GMS 30:70, 240 min): 49.0%
mean value (n = 6) of % of Compound 1 released (Table 3m: size 4 capsule, 0.03 mg Compound 1, Poloxamer 188:food grade GMS 30:70, 360 min): 70.1%
mean value (n = 6) of % of Compound 1 released (Table 3m: size 4 capsule, 0.03 mg Compound 1, Poloxamer 188:food grade GMS 30:70, 480 min): 85.9%
mean value (n = 6) of % of Compound 1 released (Table 3m: size 4 capsule, 0.03 mg Compound 1, Poloxamer 188:food grade GMS 30:70, 600 min): 93.5%
mean value (n = 6) of % of Compound 1 released (Table 3m: size 4 capsule, 0.03 mg Compound 1, Poloxamer 188:food grade GMS 30:70, 720 min): 97.6%
mean value (n = 6) of % of Compound 1 released (Table 3m: size 4 capsule, 0.03 mg Compound 1, Poloxamer 188:food grade GMS 30:70, 840 min): 99.0%
mean value (n = 4) of % of Compound 1 released (Table 3n: size 4 capsule, 0.5 mg Compound 1, Poloxamer 188:food grade GMS 30:70, 30 min): 7.9%
mean value (n = 4) of % of Compound 1 released (Table 3n: size 4 capsule, 0.5 mg Compound 1, Poloxamer 188:food grade GMS 30:70, 60 min): 15.5%
mean value (n = 4) of % of Compound 1 released (Table 3n: size 4 capsule, 0.5 mg Compound 1, Poloxamer 188:food grade GMS 30:70, 120 min): 26.9%
mean value (n = 4) of % of Compound 1 released (Table 3n: size 4 capsule, 0.5 mg Compound 1, Poloxamer 188:food grade GMS 30:70, 180 min): 37.9%
mean value (n = 4) of % of Compound 1 released (Table 3n: size 4 capsule, 0.5 mg Compound 1, Poloxamer 188:food grade GMS 30:70, 240 min): 48.8%
mean value (n = 4) of % of Compound 1 released (Table 3n: size 4 capsule, 0.5 mg Compound 1, Poloxamer 188:food grade GMS 30:70, 360 min): 68.7%
mean value (n = 4) of % of Compound 1 released (Table 3n: size 4 capsule, 0.5 mg Compound 1, Poloxamer 188:food grade GMS 30:70, 480 min): 83.4%
mean value (n = 4) of % of Compound 1 released (Table 3n: size 4 capsule, 0.5 mg Compound 1, Poloxamer 188:food grade GMS 30:70, 600 min): 90.6%
mean value (n = 4) of % of Compound 1 released (Table 3n: size 4 capsule, 0.5 mg Compound 1, Poloxamer 188:food grade GMS 30:70, 720 min): 94.7%
mean value (n = 4) of % of Compound 1 released (Table 3n: size 4 capsule, 0.5 mg Compound 1, Poloxamer 188:food grade GMS 30:70, 735 min): 95.7%
mean value (n = 4) of % of Compound 1 released (Table 3o: size 4 capsule, 0.5 mg Compound 1, Poloxamer 188:food grade GMS 30:70, 30 min): 5.6%
mean value (n = 4) of % of Compound 1 released (Table 3o: size 4 capsule, 0.5 mg Compound 1, Poloxamer 188:food grade GMS 30:70, 60 min): 13.3%
mean value (n = 4) of % of Compound 1 released (Table 3o: size 4 capsule, 0.5 mg Compound 1, Poloxamer 188:food grade GMS 30:70, 120 min): 25.5%
mean value (n = 4) of % of Compound 1 released (Table 3o: size 4 capsule, 0.5 mg Compound 1, Poloxamer 188:food grade GMS 30:70, 180 min): 37.7%
mean value (n = 4) of % of Compound 1 released (Table 3o: size 4 capsule, 0.5 mg Compound 1, Poloxamer 188:food grade GMS 30:70, 240 min): 49.7%
mean value (n = 4) of % of Compound 1 released (Table 3o: size 4 capsule, 0.5 mg Compound 1, Poloxamer 188:food grade GMS 30:70, 360 min): 71.2%
mean value (n = 4) of % of Compound 1 released (Table 3o: size 4 capsule, 0.5 mg Compound 1, Poloxamer 188:food grade GMS 30:70, 480 min): 84.0%
mean value (n = 4) of % of Compound 1 released (Table 3o: size 4 capsule, 0.5 mg Compound 1, Poloxamer 188:food grade GMS 30:70, 600 min): 89.7%
mean value (n = 4) of % of Compound 1 released (Table 3o: size 4 capsule, 0.5 mg Compound 1, Poloxamer 188:food grade GMS 30:70, 720 min): 93.1%
mean value (n = 4) of % of Compound 1 released (Table 3o: size 4 capsule, 0.5 mg Compound 1, Poloxamer 188:food grade GMS 30:70, 735 min): 94.8%
mean value (n = 4) of % of Compound 1 released (Table 3p: size 4 capsule, 0.5 mg Compound 1, Poloxamer 188:food grade GMS 30:70, 30 min): 7.3%
mean value (n = 4) of % of Compound 1 released (Table 3p: size 4 capsule, 0.5 mg Compound 1, Poloxamer 188:food grade GMS 30:70, 60 min): 14.3%
mean value (n = 4) of % of Compound 1 released (Table 3p: size 4 capsule, 0.5 mg Compound 1, Poloxamer 188:food grade GMS 30:70, 120 min): 26.1%
mean value (n = 4) of % of Compound 1 released (Table 3p: size 4 capsule, 0.5 mg Compound 1, Poloxamer 188:food grade GMS 30:70, 180 min): 38.5%
mean value (n = 4) of % of Compound 1 released (Table 3p: size 4 capsule, 0.5 mg Compound 1, Poloxamer 188:food grade GMS 30:70, 240 min): 51.1%
mean value (n = 4) of % of Compound 1 released (Table 3p: size 4 capsule, 0.5 mg Compound 1, Poloxamer 188:food grade GMS 30:70, 360 min): 74.3%
mean value (n = 4) of % of Compound 1 released (Table 3p: size 4 capsule, 0.5 mg Compound 1, Poloxamer 188:food grade GMS 30:70, 480 min): 87.0%
mean value (n = 4) of % of Compound 1 released (Table 3p: size 4 capsule, 0.5 mg Compound 1, Poloxamer 188:food grade GMS 30:70, 600 min): 92.3%
mean value (n = 4) of % of Compound 1 released (Table 3p: size 4 capsule, 0.5 mg Compound 1, Poloxamer 188:food grade GMS 30:70, 720 min): 95.0%
